In patent US10463670B2, “Use of non-peptide NK1 antagonists in a predetermined dose for the treatment of cancer” (SERVICIO ANDALUZ DE SALUD, priority 2013, dated 2019):

Key:
[1] = tested on: human melanoma; reference MEL-HO; test: Melanoma MEL-HO tumours implanted s.c. in nude mice, Aprepitant alone; assay type: in vivo
Method: (§1) Immunocompromised female mice, 5-6 weeks of age were used, nu/nu Balb/c nude mice, provided by Harlan Iberica Barcelona (Spain). They were kept at 24° C. and in sterile conditions with food and water “ad libitum”. They were injected with 2×10^7 tumour cells, corresponding to cancer (human lung cancer, reference HCC-44 supplied by DSMZ) in 200 μl of PBS subcutaneous route. The tumour size was measured and the mice were evaluated for their state of health and weight daily. The mice were randomized in nine groups when the tumours reached a volume of 75 mm^3. One of the groups was treated with 200 μl of placebo (control group) and the eight remaining groups with doses of 10 (group 1), 20 (group 2), 30 (group 3), 40 (group 4), 50 (group 5), 60 (group 6), 70 (group 7) and 80 (group 8) mg per kilogram of weight and day of the NK1 receptor antagonist Aprepitant. 3 animals were treated per group, during 28 days. All the mice were sacrificed at the end of the experiment.
(§2) Immunocompromised female mice, 5-6 weeks of age were used, in the same conditions as explained in example 1. They were injected with 2×10^7 tumour cells, corresponding to a melanoma cell line tumour (human melanoma; reference MEL-HO; supplied by DSMZ) in 200 μl of PBS by subcutaneous route. The tumour size was measured and the mice were evaluated for their state of health and weight daily. The mice were randomized in nine groups when the tumours reached a volume of 75 mm^3. One of the groups was treated with 200 μl of placebo (control group) and the eight remaining groups with doses of 10 (group 1), 20 (group 2), 30 (group 3), 40 (group 4), 50 (group 5), 60 (group 6), 70 (group 7) and 80 (group 8) mg per kilogram of weight and day of the NK1 receptor antagonist Aprepitant. 3 animals were treated per group, during 28 days. All the mice were sacrificed at the end of the experiment.

[2] = tested on: human neuroblastoma; reference KELLY; test: Neuroblastoma KELLY tumours implanted s.c. in nude mice, Aprepitant alone; assay type: in vivo
Method: as §1
as §2, with “an embryonic” for “a melanoma cell line”, “neuroblastoma;” for “melanoma;”, “KELLY;” for “MEL-HO;”

Human breast cancer MT-3 = test: MTS cell proliferation, nanomolar antagonist, MT-3; assay type: cell-based; conditions: Aprepitant 1, 5 and 7 nM, vs cells grown in the absence of antagonist, time dependant
Method: (§3) Cell cultures of various commercial tumour cell lines stated in table 13 were used. [table] […] The number of cells was quantified using a Coulter counter. […] The culture plates were grown in the presence of increasing concentrations of non-peptide NK1 receptor antagonists. To obtain the staining in the proliferation assays, 20 μl of MTS were added to each one of the wells of the cell culture plates 90 minutes before reading the samples in a multiscan spectrophotometer (TECAN Spectra classic, Barcelona, Spain) at 492 nm (assay wavelength) and 690 nm (reference wavelength). The different doses were tested in duplicate and each experiment was performed in triplicate. The antagonist Aprepitant was used at the following concentrations: 1 nanomolar -nM-, 5 nanomolar -nM- and 7 nanomolar -nM-. […] As proliferation control, the cells were grown in the absence of said antagonist. This is expressed in FIGS. 1 to 10.

Human melanoma MEL HO = test: MTS cell proliferation, nanomolar antagonist, MEL HO; assay type: cell-based; conditions: Aprepitant 1, 5 and 7 nM, vs cells grown in the absence of antagonist, time dependant
Method: as §3

[3] = tested on: Human neuroblastoma KELLY; test: MTS cell proliferation, nanomolar antagonist, KELLY; assay type: cell-based; conditions: Aprepitant 1, 5 and 7 nM, vs cells grown in the absence of antagonist, time dependant
Method: as §3

[4] = Aprepitant 10 mg/kg/day, 7 days
[5] = Aprepitant 10 mg/kg/day, 14 days
[6] = Aprepitant 10 mg/kg/day, 21 days
[7] = Aprepitant 10 mg/kg/day, 28 days
[8] = Aprepitant 20 mg/kg/day, 7 days
[9] = Aprepitant 20 mg/kg/day, 14 days
[10] = Aprepitant 20 mg/kg/day, 21 days
[11] = Aprepitant 20 mg/kg/day, 28 days
[12] = Aprepitant 30 mg/kg/day, 7 days
[13] = Aprepitant 30 mg/kg/day, 14 days
[14] = Aprepitant 30 mg/kg/day, 21 days
[15] = Aprepitant 30 mg/kg/day, 28 days
[16] = Aprepitant 40 mg/kg/day, 7 days
[17] = Aprepitant 40 mg/kg/day, 14 days
[18] = Aprepitant 40 mg/kg/day, 21 days
[19] = Aprepitant 40 mg/kg/day, 28 days
[20] = Aprepitant 50 mg/kg/day, 7 days
[21] = Aprepitant 50 mg/kg/day, 14 days
[22] = Aprepitant 50 mg/kg/day, 21 days
[23] = Aprepitant 50 mg/kg/day, 28 days
[24] = Aprepitant 60 mg/kg/day, 7 days
[25] = Aprepitant 60 mg/kg/day, 14 days
[26] = Aprepitant 60 mg/kg/day, 21 days
[27] = Aprepitant 60 mg/kg/day, 28 days
[28] = Aprepitant 70 mg/kg/day, 7 days
[29] = Aprepitant 70 mg/kg/day, 14 days
[30] = Aprepitant 70 mg/kg/day, 21 days
[31] = Aprepitant 70 mg/kg/day, 28 days
[32] = Aprepitant 80 mg/kg/day, 7 days
[33] = Aprepitant 80 mg/kg/day, 14 days
[34] = Aprepitant 80 mg/kg/day, 21 days
[35] = Aprepitant 80 mg/kg/day, 28 days

C[C@@H](O[C@H]1OCCN(Cc2n[nH]c(=O)[nH]2)[C@H]1c1ccc(F)cc1)c1cc(C(F)(F)F)cc(C(F)(F)F)c1 [Aprepitant]
Tumour size (mean volume of the tumour) [1, 4]: 235 ± 3 cubic millimeters
Tumour size (mean volume of the tumour) [1, 5]: 215 ± 4 cubic millimeters
Tumour size (mean volume of the tumour) [1, 6]: 190 ± 4 cubic millimeters
Tumour size (mean volume of the tumour) [1, 7]: 170 ± 6 cubic millimeters
Tumour size (mean volume of the tumour) [1, 8]: 210 ± 6 cubic millimeters
Tumour size (mean volume of the tumour) [1, 9]: 200 ± 5 cubic millimeters
Tumour size (mean volume of the tumour) [1, 10]: 175 ± 5 cubic millimeters
Tumour size (mean volume of the tumour) [1, 11]: 150 ± 7 cubic millimeters
Tumour size (mean volume of the tumour) [1, 12]: 195 ± 7 cubic millimeters
Tumour size (mean volume of the tumour) [1, 13]: 185 ± 6 cubic millimeters
Tumour size (mean volume of the tumour) [1, 14]: 160 ± 6 cubic millimeters
Tumour size (mean volume of the tumour) [1, 15]: 140 ± 4 cubic millimeters
Tumour size (mean volume of the tumour) [1, 16]: 175 ± 8 cubic millimeters
Tumour size (mean volume of the tumour) [1, 17]: 160 ± 8 cubic millimeters
Tumour size (mean volume of the tumour) [1, 18]: 140 ± 4 cubic millimeters
Tumour size (mean volume of the tumour) [1, 19]: 110 ± 6 cubic millimeters
Tumour size (mean volume of the tumour) [1, 20]: 160 ± 5 cubic millimeters
Tumour size (mean volume of the tumour) [1, 21]: 150 ± 4 cubic millimeters
Tumour size (mean volume of the tumour) [1, 22]: 125 ± 5 cubic millimeters
Tumour size (mean volume of the tumour) [1, 23]: 100 ± 7 cubic millimeters
Tumour size (mean volume of the tumour) [1, 24]: 145 ± 6 cubic millimeters
Tumour size (mean volume of the tumour) [1, 25]: 135 ± 5 cubic millimeters
Tumour size (mean volume of the tumour) [1, 26]: 115 ± 6 cubic millimeters
Tumour size (mean volume of the tumour) [1, 27]: 85 ± 4 cubic millimeters
Tumour size (mean volume of the tumour) [1, 28]: 125 ± 4 cubic millimeters
Tumour size (mean volume of the tumour) [1, 29]: 105 ± 6 cubic millimeters
Tumour size (mean volume of the tumour) [1, 30]: 90 ± 4 cubic millimeters
Tumour size (mean volume of the tumour) [1, 31]: 80 ± 7 cubic millimeters
Tumour size (mean volume of the tumour) [1, 32]: 100 ± 6 cubic millimeters
Tumour size (mean volume of the tumour) [1, 33]: 95 ± 7 cubic millimeters
Tumour size (mean volume of the tumour) [1, 34]: 65 ± 7 cubic millimeters
Tumour size (mean volume of the tumour) [1, 35]: 65 ± 9 cubic millimeters
Tumour size (mean volume of the tumour) [2, 4]: 180 ± 4 cubic millimeters
Tumour size (mean volume of the tumour) [2, 5]: 165 ± 6 cubic millimeters
Tumour size (mean volume of the tumour) [2, 6]: 140 ± 5 cubic millimeters
Tumour size (mean volume of the tumour) [2, 7]: 120 ± 2 cubic millimeters
Tumour size (mean volume of the tumour) [2, 8]: 175 ± 7 cubic millimeters
Tumour size (mean volume of the tumour) [2, 9]: 155 ± 7 cubic millimeters
Tumour size (mean volume of the tumour) [2, 10]: 130 ± 4 cubic millimeters
Tumour size (mean volume of the tumour) [2, 11]: 105 ± 4 cubic millimeters
Tumour size (mean volume of the tumour) [2, 12]: 160 ± 3 cubic millimeters
Tumour size (mean volume of the tumour) [2, 13]: 145 ± 3 cubic millimeters
Tumour size (mean volume of the tumour) [2, 14]: 115 ± 3 cubic millimeters
Tumour size (mean volume of the tumour) [2, 15]: 90 ± 6 cubic millimeters
Tumour size (mean volume of the tumour) [2, 16]: 155 ± 6 cubic millimeters
Tumour size (mean volume of the tumour) [2, 17]: 130 ± 6 cubic millimeters
Tumour size (mean volume of the tumour) [2, 18]: 105 ± 7 cubic millimeters
Tumour size (mean volume of the tumour) [2, 19]: 75 ± 8 cubic millimeters
Tumour size (mean volume of the tumour) [2, 20]: 140 ± 4 cubic millimeters
Tumour size (mean volume of the tumour) [2, 21]: 110 ± 5 cubic millimeters
Tumour size (mean volume of the tumour) [2, 22]: 95 ± 7 cubic millimeters
Tumour size (mean volume of the tumour) [2, 23]: 60 ± 5 cubic millimeters
Tumour size (mean volume of the tumour) [2, 24]: 130 ± 5 cubic millimeters
Tumour size (mean volume of the tumour) [2, 25]: 115 ± 7 cubic millimeters
Tumour size (mean volume of the tumour) [2, 26]: 85 ± 3 cubic millimeters
Tumour size (mean volume of the tumour) [2, 27]: 55 ± 9 cubic millimeters
Tumour size (mean volume of the tumour) [2, 28]: 120 ± 6 cubic millimeters
Tumour size (mean volume of the tumour) [2, 29]: 95 ± 8 cubic millimeters
Tumour size (mean volume of the tumour) [2, 30]: 65 ± 6 cubic millimeters
Tumour size (mean volume of the tumour) [2, 31]: 40 ± 5 cubic millimeters
Tumour size (mean volume of the tumour) [2, 32]: 105 ± 7 cubic millimeters
Tumour size (mean volume of the tumour) [2, 33]: 85 ± 6 cubic millimeters
Tumour size (mean volume of the tumour) [2, 34]: 45 ± 5 cubic millimeters
Tumour size (mean volume of the tumour) [2, 35]: 25 ± 6 cubic millimeters
Proliferation of tumour cells (MTS) (Human breast cancer MT-3): increase was observed of proliferation
Proliferation of tumour cells (MTS) (Human melanoma MEL HO): increase was observed of proliferation
Proliferation of tumour cells (MTS) [3]: increase was observed of proliferation
